Measurements published in ChEMBL document CHEMBL5252541, “Repurposing antipsychotic drugs into antifungal agents: Synergistic combinations of azoles and bromperidol derivatives in the treatment of various fungal infections” (Eur J Med Chem, 2017).

Assays:
[1] = tested on: Candida albicans; test: Antifungal activity against Candida albicans ATCC 64124 measured after 48 hrs by broth microdilution analysis; assay type: functional
[2] = tested on: Candida albicans; test: Antifungal activity against Candida albicans ATCC 10231 measured after 48 hrs by broth microdilution analysis; assay type: functional
[3] = tested on: Candida albicans; test: Synergistic antifungal activity against Candida albicans ATCC 10231 assessed as compound MIC measured after 48 hrs in presence of fluconazole by checkboard based microplate reader analysis; assay type: functional
[4] = tested on: Candida albicans; test: Synergistic antifungal activity against Candida albicans ATCC 64124 assessed as compound MIC measured after 48 hrs in presence of posaconazole by checkboard based microplate reader analysis; assay type: functional
[5] = tested on: Candida albicans; test: Synergistic antifungal activity against Candida albicans ATCC 10231 assessed as compound MIC measured after 48 hrs in presence of posaconazole by checkboard based microplate reader analysis; assay type: functional
[6] = tested on: Candida albicans; test: Synergistic antifungal activity against Candida albicans ATCC 64124 assessed as compound MIC measured after 48 hrs in presence of ketoconazole by checkboard based microplate reader analysis; assay type: functional
[7] = tested on: Candida albicans; test: Synergistic antifungal activity against Candida albicans ATCC 10231 assessed as compound MIC measured after 48 hrs in presence of ketoconazole by checkboard based microplate reader analysis; assay type: functional
[8] = tested on: Candida albicans; test: Synergistic antifungal activity against Candida albicans ATCC 64124 assessed as compound MIC measured after 48 hrs in presence of itraconazole by checkboard based microplate reader analysis; assay type: functional
[9] = tested on: Candida albicans; test: Synergistic antifungal activity against Candida albicans ATCC 10231 assessed as compound MIC measured after 48 hrs in presence of itraconazole by checkboard based microplate reader analysis; assay type: functional
[10] = tested on: Candida albicans; test: Synergistic antifungal activity against Candida albicans ATCC 64124 assessed as compound MIC measured after 48 hrs in presence of fluconazole by checkboard based microplate reader analysis; assay type: functional
[11] = tested on: Candida albicans; test: Antifungal activity against Candida albicans ATCC MYA-1237 measured after 48 hrs by broth microdilution analysis; assay type: functional
[12] = tested on: Nakaseomyces glabratus; test: Antifungal activity against Candida glabrata ATCC 2001 measured after 48 hrs by broth microdilution analysis; assay type: functional
[13] = tested on: Candida albicans; test: Synergistic antifungal activity against Candida albicans ATCC 10231 assessed as compound MIC measured after 48 hrs in presence of voriconazole by checkboard based microplate reader analysis; assay type: functional
[14] = tested on: Candida albicans; test: Synergistic antifungal activity against Candida albicans ATCC 64124 assessed as compound MIC measured after 48 hrs in presence of voriconazole by checkboard based microplate reader analysis; assay type: functional
[15] = tested on: Candida albicans; test: Additive antifungal activity against Candida albicans ATCC 10231 assessed as fractional inhibitory concentration index measured for 72 hrs in presence of fluconazole; assay type: functional
[16] = tested on: Candida albicans; test: Additive antifungal activity against Candida albicans ATCC 64124 assessed as fractional inhibitory concentration index measured for 72 hrs in presence of fluconazole; assay type: functional
[17] = tested on: Candida albicans; test: Additive antifungal activity against Candida albicans ATCC 10231 assessed as fractional inhibitory concentration index measured for 72 hrs in presence of itraconazole; assay type: functional
[18] = tested on: Candida albicans; test: Additive antifungal activity against Candida albicans ATCC 64124 assessed as fractional inhibitory concentration index measured for 72 hrs in presence of itraconazole; assay type: functional
[19] = tested on: Candida albicans; test: Synergistic antifungal activity against Candida albicans ATCC 64124 assessed as fractional inhibitory concentration index measured for 72 hrs in presence of posaconazole; assay type: functional
[20] = tested on: Candida albicans; test: Partial synergistic antifungal activity against Candida albicans ATCC 10231 assessed as fractional inhibitory concentration index measured for 72 hrs in presence of voriconazole; assay type: functional
[21] = tested on: Candida albicans; test: Partial synergistic antifungal activity against Candida albicans ATCC 64124 assessed as fractional inhibitory concentration index measured for 72 hrs in presence of voriconazole; assay type: functional
[22] = tested on: Candida albicans; test: Partial synergistic antifungal activity against Candida albicans ATCC 10231 assessed as fractional inhibitory concentration index measured for 72 hrs in presence of ketoconazole; assay type: functional
[23] = tested on: Candida albicans; test: Partial synergistic antifungal activity against Candida albicans ATCC 64124 assessed as fractional inhibitory concentration index measured for 72 hrs in presence of ketoconazole; assay type: functional
[24] = tested on: Candida albicans; test: Antifungal activity against Candida albicans ATCC MYA-1003 measured after 48 hrs by broth microdilution analysis; assay type: functional
[25] = tested on: Candida albicans; test: Antifungal activity against Candida albicans ATCC MYA-2310 measured after 48 hrs by broth microdilution analysis; assay type: functional
[26] = tested on: Candida albicans; test: Antifungal activity against Candida albicans ATCC MYA-2876 measured after 48 hrs by broth microdilution analysis; assay type: functional
[27] = tested on: Candida albicans; test: Antifungal activity against Candida albicans ATCC 90819 measured after 48 hrs by broth microdilution analysis; assay type: functional
[28] = tested on: Aspergillus terreus; test: Antifungal activity against Aspergillus terreus ATCC MYA-3633 measured after 48 hrs by broth microdilution analysis; assay type: functional
[29] = tested on: Candida albicans; test: Additive antifungal activity against Candida albicans ATCC MYA-1237 assessed as fractional inhibitory concentration index measured for 72 hrs in presence of posaconazole; assay type: functional
[30] = tested on: Candida albicans; test: Additive antifungal activity against Candida albicans ATCC MYA-1237 assessed as fractional inhibitory concentration index measured for 72 hrs in presence of voriconazole; assay type: functional
[31] = tested on: Candida albicans; test: Additive antifungal activity against Candida albicans ATCC MYA-2310 assessed as fractional inhibitory concentration index measured for 72 hrs in presence of voriconazole; assay type: functional
[32] = tested on: Candida albicans; test: Additive antifungal activity against Candida albicans ATCC MYA-2876 assessed as fractional inhibitory concentration index measured for 72 hrs in presence of voriconazole; assay type: functional
[33] = tested on: Nakaseomyces glabratus; test: Additive antifungal activity against Candida glabrata ATCC 2001 assessed as fractional inhibitory concentration index measured for 72 hrs in presence of posaconazole; assay type: functional
[34] = tested on: Nakaseomyces glabratus; test: Additive antifungal activity against Candida glabrata ATCC 2001 assessed as fractional inhibitory concentration index measured for 72 hrs in presence of voriconazole; assay type: functional
[35] = tested on: Aspergillus terreus; test: Additive antifungal activity against Aspergillus terreus ATCC MYA-3633 assessed as fractional inhibitory concentration index measured for 72 hrs in presence of posaconazole; assay type: functional
[36] = tested on: Aspergillus terreus; test: Additive antifungal activity against Aspergillus terreus ATCC MYA-3633 assessed as fractional inhibitory concentration index measured for 72 hrs in presence of voriconazole; assay type: functional
[37] = tested on: Candida albicans; test: Partial synergistic antifungal activity against Candida albicans ATCC MYA-1003 assessed as fractional inhibitory concentration index measured for 72 hrs in presence of posaconazole; assay type: functional
[38] = tested on: Candida albicans; test: Partial synergistic antifungal activity against Candida albicans ATCC MYA-1003 assessed as fractional inhibitory concentration index measured for 72 hrs in presence of voriconazole; assay type: functional
[39] = tested on: Candida albicans; test: Synergistic antifungal activity against Candida albicans ATCC 90819 assessed as fractional inhibitory concentration index measured for 72 hrs in presence of voriconazole; assay type: functional
[40] = tested on: Candida albicans; test: Partial synergistic antifungal activity against Candida albicans MYA-2876 assessed as fractional inhibitory concentration index measured for 72 hrs in presence of posaconazole; assay type: functional
[41] = tested on: Candida albicans; test: Partial synergistic antifungal activity against Candida albicans ATCC 90819 assessed as fractional inhibitory concentration index measured for 72 hrs in presence of posaconazole; assay type: functional
[42] = tested on: Candida albicans; test: Additive antifungal activity against Candida albicans MYA-1003 assessed as fractional inhibitory concentration index measured for 72 hrs in presence of voriconazole

MIC [1]: > 32 µg/mL
MIC [2]: > 32 µg/mL
MIC [3]: 16 µg/mL
MIC [4]: 4 µg/mL
MIC [5]: 4 µg/mL
MIC [6]: 0.5 µg/mL
MIC [7]: 16 µg/mL
MIC [8]: > 32 µg/mL
MIC [9]: > 32 µg/mL
MIC [10]: > 32 µg/mL
MIC [11]: > 32 µg/mL
MIC [12]: > 32 µg/mL
MIC [13]: 16 µg/mL
MIC [14]: 16 µg/mL
MIC [24]: > 32 µg/mL
MIC [25]: > 32 µg/mL
MIC [26]: > 32 µg/mL
MIC [27]: > 32 µg/mL
MIC [28]: > 32 µg/mL
SMILES: O=C(CCCN1CCC(O)(c2ccc(Br)cc2)CC1)c1ccc(Cl)cc1
fractional inhibitory concentration index (FICI) [15]: 1.5
fractional inhibitory concentration index (FICI) [16]: 2
fractional inhibitory concentration index (FICI) [17]: 2
fractional inhibitory concentration index (FICI) [18]: 2
fractional inhibitory concentration index (FICI) [19]: 0.19
fractional inhibitory concentration index (FICI) [20]: 0.75
fractional inhibitory concentration index (FICI) [21]: 0.63
fractional inhibitory concentration index (FICI) [22]: 0.75
fractional inhibitory concentration index (FICI) [23]: 0.52
fractional inhibitory concentration index (FICI) [29]: 1.02
fractional inhibitory concentration index (FICI) [30]: 1
fractional inhibitory concentration index (FICI) [31]: 1
fractional inhibitory concentration index (FICI) [32]: 1
fractional inhibitory concentration index (FICI) [33]: 2
fractional inhibitory concentration index (FICI) [34]: 2
fractional inhibitory concentration index (FICI) [35]: 2
fractional inhibitory concentration index (FICI) [36]: 2
fractional inhibitory concentration index (FICI) [37]: 0.53
fractional inhibitory concentration index (FICI) [38]: 0.75
fractional inhibitory concentration index (FICI) [39]: 0.31
fractional inhibitory concentration index (FICI) [40]: 0.52
fractional inhibitory concentration index (FICI) [41]: 0.52
fractional inhibitory concentration index (FICI) [42]: 0.75
